In ChEMBL document CHEMBL3112508, “IV. Discovery of CXCR3 antagonists substituted with heterocycles as amide surrogates: improved PK, hERG and metabolic profiles” (Bioorg Med Chem Lett, 2014):

Experiments:
[1] = target: Voltage-gated inwardly rectifying potassium channel KCNH2 (Homo sapiens, UniProt Q12809); test: Inhibition of human ERG channel by Rb efflux assay
Rattus norvegicus [2] = test: (§1) AUC in rat at 10 mg/kg, po; assay type: ADME, organism-based, Plasma; parameters: dose 10 mg/kg, route oral; conditions: in vivo
[3] = target: T1, C-X-C chemokine receptor type 3 (Homo sapiens, UniProt P49682); test: Binding affinity to human CXCR3 receptor
T1 sequence (P49682 whole entry): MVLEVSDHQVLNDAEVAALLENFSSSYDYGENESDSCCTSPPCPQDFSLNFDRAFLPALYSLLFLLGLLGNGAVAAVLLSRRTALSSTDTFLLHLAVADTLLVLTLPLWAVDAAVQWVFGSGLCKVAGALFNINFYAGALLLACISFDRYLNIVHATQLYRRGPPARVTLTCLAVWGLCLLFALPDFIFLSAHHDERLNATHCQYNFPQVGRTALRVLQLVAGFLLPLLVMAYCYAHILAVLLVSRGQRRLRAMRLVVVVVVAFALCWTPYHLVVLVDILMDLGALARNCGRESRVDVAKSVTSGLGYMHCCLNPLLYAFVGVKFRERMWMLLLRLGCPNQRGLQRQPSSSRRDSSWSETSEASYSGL

[4] = as §1; assay type: ADME, organism-based, Plasma; parameters: dose 10 mg/kg, route oral; conditions: plasma
Rattus norvegicus [5] = test: AUC in rat at 10 mg/kg, po after 6 hrs; assay type: ADME, organism-based, Plasma; parameters: time < 6 hr, dose 10 mg/kg, route oral; conditions: in vivo

Voltage-gated inwardly rectifying potassium channel KCNH2, sequence (Q12809 whole entry): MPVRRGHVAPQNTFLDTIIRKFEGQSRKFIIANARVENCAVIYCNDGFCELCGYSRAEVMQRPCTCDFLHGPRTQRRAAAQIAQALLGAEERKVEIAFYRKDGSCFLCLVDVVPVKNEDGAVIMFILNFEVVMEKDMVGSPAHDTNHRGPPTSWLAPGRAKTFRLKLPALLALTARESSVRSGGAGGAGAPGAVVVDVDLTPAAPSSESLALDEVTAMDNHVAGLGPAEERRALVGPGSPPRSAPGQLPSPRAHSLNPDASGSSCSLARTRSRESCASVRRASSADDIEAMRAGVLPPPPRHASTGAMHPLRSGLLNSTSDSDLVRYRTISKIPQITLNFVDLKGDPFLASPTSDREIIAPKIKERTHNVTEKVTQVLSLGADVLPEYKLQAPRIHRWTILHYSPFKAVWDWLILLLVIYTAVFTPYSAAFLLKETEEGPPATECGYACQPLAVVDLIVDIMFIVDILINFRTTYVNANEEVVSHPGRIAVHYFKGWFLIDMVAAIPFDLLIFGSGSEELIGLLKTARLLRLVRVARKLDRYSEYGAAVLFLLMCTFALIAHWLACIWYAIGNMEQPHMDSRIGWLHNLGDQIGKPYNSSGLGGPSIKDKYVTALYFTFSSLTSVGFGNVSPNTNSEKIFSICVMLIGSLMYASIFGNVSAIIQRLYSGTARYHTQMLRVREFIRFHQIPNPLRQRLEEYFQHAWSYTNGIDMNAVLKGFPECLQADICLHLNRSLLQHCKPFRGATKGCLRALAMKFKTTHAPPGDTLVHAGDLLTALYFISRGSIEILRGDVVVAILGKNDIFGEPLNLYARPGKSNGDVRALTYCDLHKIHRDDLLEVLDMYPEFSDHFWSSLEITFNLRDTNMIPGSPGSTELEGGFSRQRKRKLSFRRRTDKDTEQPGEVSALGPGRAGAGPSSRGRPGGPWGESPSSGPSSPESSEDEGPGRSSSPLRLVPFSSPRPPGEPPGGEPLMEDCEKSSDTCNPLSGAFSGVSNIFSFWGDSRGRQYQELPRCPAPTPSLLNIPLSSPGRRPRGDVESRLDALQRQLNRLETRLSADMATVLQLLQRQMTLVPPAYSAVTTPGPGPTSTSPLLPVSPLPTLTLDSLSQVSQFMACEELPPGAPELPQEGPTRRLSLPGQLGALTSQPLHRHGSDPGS

AUC (Rattus norvegicus [2]) | IC50 [3] | AUC [4] | AUC (Rattus norvegicus [5]) | Structure (SMILES) | inhibition (INH) [1]
5.1 uM.hr/ml |  |  |  | CC[C@H]1CN(c2nc(N)c(C(N)=O)nc2Cl)CCN1C1CCN(Cc2ccc(Cl)cc2)CC1 | > 90%
 | 50.5 nM |  |  | CC[C@H]1CN(c2ncc(C#N)cc2Cl)CCN1C1CCN(Cc2ccc(Cl)cc2F)CC1 | 
 | 0.3 nM |  |  | CC[C@H]1CN(c2ncc(-c3ncc[nH]3)cc2Cl)CCN1C1CCN(Cc2ccc(Cl)cc2F)CC1 | 
 | 1.3 nM |  |  | CC[C@H]1CN(c2ncc(C3=NCCN3)cc2Cl)CCN1C1CCN(Cc2ccc(Cl)cc2F)CC1 | 
 | 6.8 nM |  |  | CC[C@H]1CN(c2ncc(-c3nnc[nH]3)cc2Cl)CCN1C1CCN(Cc2ccc(Cl)cc2F)CC1 | 
 | 1380 nM |  |  | CC[C@H]1CN(c2ncc(-c3nnn[nH]3)cc2Cl)CCN1C1CCN(Cc2ccc(Cl)cc2F)CC1 | 
 | 760 nM |  |  | CC[C@H]1CN(c2ncc(-c3noc(=O)[nH]3)cc2Cl)CCN1C1CCN(Cc2ccc(Cl)cc2F)CC1 | 
 | 286 nM |  |  | CC[C@H]1CN(c2ncc(-c3ncon3)cc2Cl)CCN1C1CCN(Cc2ccc(Cl)cc2F)CC1 | 
 | 1.4 nM | 1.8 µM·h |  | CC[C@H]1CN(c2ncc(-c3nnco3)cc2Cl)CCN1C1CCN(Cc2ccc(Cl)cc2F)CC1 | 
 | 5.2 nM |  |  | CC[C@H]1CN(c2nc(N)c(-c3nnco3)nc2Cl)CCN1C1CCN(Cc2ccc(Cl)cc2)CC1 | 
1 uM.hr/ml | 0.4 nM |  |  | CC[C@H]1CN(c2nc(N)c(-c3nnc(C)o3)nc2Cl)CCN1C1CCN(Cc2ccc(Cl)cc2)CC1 | 
3.9 uM.hr/ml | 4.2 nM |  |  | CC[C@H]1CN(c2nc(N)c(-c3nnc(C)o3)nc2Cl)CCN1C1CCN(C(=O)c2ccc(Cl)cc2)CC1 | 85%
10.2 uM.hr/ml | 2 nM |  |  | CC[C@H]1CN(c2nc(N)c(-c3nnc(C)o3)nc2Cl)CCN1C1CCN(C(=O)c2ccc(Cl)nc2N)CC1 | 26%
 | 6 nM |  |  | CC[C@H]1CN(c2nc(N)c(-c3nnc(C4CC4)o3)nc2Cl)CCN1C1CCN(C(=O)c2ccc(Cl)nc2N)CC1 | 72%
2.5 uM.hr/ml | 2.2 nM |  |  | CC[C@H]1CN(c2nc(N)c(-c3nnc(CO)o3)nc2Cl)CCN1C1CCN(C(=O)c2ccc(Cl)nc2N)CC1 | 16%
0.3 uM.hr/ml | 1.3 nM |  |  | CC[C@H]1CN(c2nc(N)c(-c3nnc(N)o3)nc2Cl)CCN1C1CCN(C(=O)c2ccc(Cl)nc2N)CC1 | 7%
 | 2300 nM |  |  | CC[C@H]1CN(c2nc(N)c(-c3nnc(NS(C)(=O)=O)o3)nc2Cl)CCN1C1CCN(C(=O)c2ccc(Cl)nc2N)CC1 | 5%
 | 23.6 nM |  |  | CC[C@H]1CN(c2nc(N)c(-c3nnc(N(C)C)o3)nc2Cl)CCN1C1CCN(C(=O)c2ccc(Cl)nc2N)CC1 | 67%
0.1 uM.hr/ml | 3.9 nM |  |  | CC[C@H]1CN(c2nc(N)c(-c3nnc(NCCO)o3)nc2Cl)CCN1C1CCN(C(=O)c2ccc(Cl)nc2N)CC1 | 0%

AUC (Rattus norvegicus [2]) | IC50 [3] | AUC [4] | AUC (Rattus norvegicus [5]) | Structure (SMILES) | inhibition (INH) [1]
5.5 uM.hr/ml | 1.6 nM |  |  | CC[C@H]1CN(c2nc(N)c(-c3nnc(NC)o3)nc2Cl)CCN1C1CCN(C(=O)c2ccc(Cl)nc2N)CC1 | 39%
16.6 uM.hr/ml | 1 nM |  |  | CCNc1nnc(-c2nc(Cl)c(N3CCN(C4CCN(C(=O)c5ccc(Cl)nc5N)CC4)[C@@H](CC)C3)nc2N)o1 | 26%
40.4 uM.hr/ml | 0.8 nM |  | 1.4 uM.hr/ml | CCNc1nnc(-c2cnc(N3CCN(C4CCN(C(=O)c5ccc(Cl)nc5N)CC4)[C@@H](CC)C3)c(Cl)n2)o1 | 14%
2.6 uM.hr/ml | 1.2 nM |  | 0.1 uM.hr/ml | CCNc1nnc(-c2cnc(N3CCN(C4CCN(C(=O)c5ccc(Cl)nc5N)CC4)[C@@H](CC)C3)c(C)n2)o1 | 12%
25.3 uM.hr/ml | 1.5 nM |  | 4.2 uM.hr/ml | CCNc1nnc(-c2cnc(N3CCN(C4CCN(C(=O)c5ccc(Cl)nc5N)CC4)[C@@H](CC)C3)c(C(F)(F)F)n2)o1 | 43%
 | 3.8 nM |  |  | CCNc1nnc(-c2cnc(N3CCN(C4CCN(C(=O)c5ccc(Cl)nc5N)CC4)[C@@H](CC)C3)c(CC)n2)o1 | 4%
 | 24.5 nM |  |  | CCNc1nnc(-c2cnc(N3CCN(C4CCN(C(=O)c5ccc(Cl)nc5N)CC4)[C@@H](CC)C3)c(C3CC3)n2)o1 | 14%
 | 437 nM |  |  | CCNc1nnc(-c2cnc(N3CCN(C4CCN(C(=O)c5ccc(Cl)nc5N)CC4)[C@@H](CC)C3)c(C(C)C)n2)o1 | 8%
15.3 uM.hr/ml | 3.4 nM |  | 0.8 uM.hr/ml | CCNc1nnc(-c2cnc(N3C[C@H](CC)N(C4CCN(C(=O)c5ccc(Cl)nc5N)CC4)C[C@H]3C)c(C)n2)o1 | 4%
30.2 uM.hr/ml | 3.6 nM |  | 5.1 uM.hr/ml | CCNc1nnc(-c2cnc(N3C[C@H](CC)N(C4CCN(C(=O)c5ccc(Cl)nc5N)CC4)C[C@H]3C)c(C(F)(F)F)n2)o1 | 22%
6.7 uM.hr/ml | 1.8 nM |  | 0.3 uM.hr/ml | CC[C@H]1CN(c2ncc(-c3ncc[nH]3)nc2C)[C@H](C)CN1C1CCN(C(=O)c2ccc(Cl)nc2N)CC1 | 22%
16.4 uM.hr/ml | 1.2 nM |  | 0.9 uM.hr/ml | CCNc1nnc(-c2cnc(N3CCN(C4CCN(C(=O)c5ccc(Cl)cc5)CC4)[C@@H](CC)C3)c(C)n2)o1 | 40%
16.6 uM.hr/ml | 2.8 nM |  | 3.3 uM.hr/ml | CCNc1nnc(-c2cnc(N3C[C@H](CC)N(C4CCN(C(=O)c5ccc(Cl)cc5)CC4)C[C@H]3C)c(C)n2)o1 | 25%
9.9 uM.hr/ml | 1.8 nM |  | 2.3 uM.hr/ml | CCNc1nnc(-c2cnc(N3C[C@H](CC)N(C4CCN(C(=O)c5ccc(Cl)cc5)CC4)C[C@H]3C)c(C(F)(F)F)n2)o1 | 27%
18 uM.hr/ml | 6.2 nM |  | 2.4 uM.hr/ml | CC[C@H]1CN(c2ncc(-c3nnc(NC)o3)nc2C)[C@H](C)CN1C1CCN(C(=O)c2ccc(Cl)cc2)CC1 | 17%
12.7 uM.hr/ml | 6.4 nM |  | 1 uM.hr/ml | CC[C@H]1CN(c2ncc(-c3nnc(N)o3)nc2C)[C@H](C)CN1C1CCN(C(=O)c2ccc(Cl)cc2)CC1 | 0%
7.3 uM.hr/ml | 1.6 nM |  | 0.8 uM.hr/ml | CC[C@H]1CN(c2ncc(-c3ncc[nH]3)nc2C)[C@H](C)CN1C1CCN(C(=O)c2ccc(Cl)cc2)CC1 | 36%
26.5 uM.hr/ml | 33.8 nM |  | 4.9 uM.hr/ml | CC[C@H]1CN(c2ncc(-c3nnc[nH]3)nc2C)[C@H](C)CN1C1CCN(C(=O)c2ccc(Cl)cc2)CC1 | 4%
